In patent EP1641803B1, “THIENOPYRIMIDINE DERIVATIVES AS POTASSIUM CHANNEL INHIBITORS” (Xention Limited, priority 2003, dated 2004):

Experiments:
human Kv1.5 = biological target: T1, human Kv1.5 (Homo sapiens, UniProt P22460); assay: Kv1.5 Rb+ Efflux Assay; format: cell-based; settings: inhibition of 86Rb+ efflux through Kv1.5; cells stably transfected with human Kv1.5; 10 point concentration response curves n=2; normalised to 2.5mM 4 amino-pyridine block
T1 construct: expressed in transfected cells
Description: The pore of a potassium channel is permeable to other monovalent cations such as Rb^+ and Tl^+. Analysis of cellular efflux of potassium channel permeable ions enables potassium channel activity to be monitored directly. Cells stably transfected with cDNA for human Kv1.5 (in pEF6::VA-His-TOPO) were grown in Dulbecco's Modified Eagle media (DMEM) alpha supplemented with 10% Fetal Calf Serum (FCS), 20 µl/ml penicillin (5000U/ml) streptomycin (5000µg/ml), 10µl/ml [100x] glutamine, and blasticidin (7.5µg/ml). Cells were dispensed into 96 well cellstar TC plates and allowed to grow until a confluent monolayer was visible. On the morning of the assay run, cold media was aspirated using the TECAN plate washer, and a 50µl media spike containing 2µCi/ml (37kBq/ml) ^86Rb^+ added to each well containing cells using the Shallow-Well Matrix Platemate. Plates were placed in a incubator at 37°C for a minimum of 3 hours. Unloaded ^86Rb^+ in the "hot" media was aspirated and each well washed 4x250µl with Earls Balanced Salt Solution (EBSS) which contained 5mM KCl, 140mM NaCl, 2mM CaCl2, 1mM MgSO4, 10mM HEPES, and 5mM glucose, pH 7.4, 290-300 mOsm. These cells were then pre-incubated with 50µl of EBSS +/- test compounds for 10 minutes at room temperature. After the 10 minute incubation, 50µl of modified EBSS which contained 145mM KCl, 2mM CaCl2, 1mM MgSO4, 10mM HEPES, 5mM glucose, pH 7.4, 290-300 mOsm, was added, and the cells were incubated for a further 10 minutes at room temperature. The high KCl EBSS was used to depolarise cells to a membrane potential that would activate Kv1.5 channels. After the final incubation 80µl/100µl of the reaction from each well was transferred to equivalent wells in a Packard "Optiplate" white 96 well plate and counted in a Packard TopCount liquid scintillation counter by Cerenkov emission. Percentage inhibition ^86Rb^+ efflux through Kv1.5 was calculated by normalisation to 2.5mM 4 amino-pyridine control block of Kv1.5. Alternatively cells were loaded with ^85Rb^+ and quantified by atomic absorption spectroscopy. IC50 determinations were derived from 10 point concentration response curves n=2 using the method described above. Data was fitted as variable slope sigmoidal fit using Graphpad Prism (V3.02) software.

hKv1.5 = hKv1.5 (Homo sapiens, UniProt P22460); assay: Kv1.5 Autopatch Electrophysiology (whole cell patch-clamp); format: cell-based; settings: compound at 1µM, room temperature (22-24°C), held at -80mV, step to 0mV for 1000ms, total charge measured
Method in brief: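 Whole-cell automated patch-clamp at 22-24°C, compounds tested at 1µM in external bather (KCl/K-gluconate, pH 7.4; KCl/EGTA pipette). Cells held at -80mV and stepped to 0mV for 1000ms every 5s; only cells with IK > 500 pA and Rseries ≤18 MΩ used. Read-out: total charge over the whole step.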

Sequence of hKv1.5 (P22460 whole entry): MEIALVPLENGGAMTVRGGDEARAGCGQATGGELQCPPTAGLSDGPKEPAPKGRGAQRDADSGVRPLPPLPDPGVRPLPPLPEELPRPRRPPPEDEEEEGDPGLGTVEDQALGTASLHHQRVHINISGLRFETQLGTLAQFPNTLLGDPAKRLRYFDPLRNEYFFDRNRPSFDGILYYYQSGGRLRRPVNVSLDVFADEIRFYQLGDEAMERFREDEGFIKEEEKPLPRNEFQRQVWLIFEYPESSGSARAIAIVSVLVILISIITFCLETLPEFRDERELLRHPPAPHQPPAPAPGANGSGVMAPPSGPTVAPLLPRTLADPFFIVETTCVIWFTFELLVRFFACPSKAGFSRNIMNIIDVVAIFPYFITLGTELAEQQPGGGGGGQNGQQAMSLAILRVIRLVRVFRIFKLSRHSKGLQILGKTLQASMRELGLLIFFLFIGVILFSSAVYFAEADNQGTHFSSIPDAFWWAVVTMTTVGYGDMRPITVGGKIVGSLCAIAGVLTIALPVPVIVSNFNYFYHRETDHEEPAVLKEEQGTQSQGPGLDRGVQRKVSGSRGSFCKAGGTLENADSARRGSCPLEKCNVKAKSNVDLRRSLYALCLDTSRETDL
T1 sequence (P22460 whole entry): as above

| Compound | IC50 (human Kv1.5) [nM] | inhibition at 1 µM (hKv1.5) [%] |
| --- | --- | --- |
| Clc1ccc(-c2csc3ncnc(NCCc4ccccc4)c23)cc1 [Example 136, [5-(4-Chloro-phenyl)-thieno[2,3-d]pyrimidin-4-yl]-phenethyl-amine] | 16800 | 27.2 |
| Brc1ccc(-c2csc3ncnc(NCCc4ccc5c(c4)OCCO5)c23)cc1 [Example 137, [5-(4-Bromo-phenyl)-thieno[2,3-d]pyrimidin-4-yl]-[2-(2,3-dihydro-benzo[1,4]dioxin-6-yl)-ethyl]-amine] | 10700 | 96 |
| COc1ccc(-c2csc3ncnc(NCc4ccco4)c23)cc1 [Example 139, Furan-2-ylmethyl-[5-(4-methoxy-phenyl)-thieno[2,3-d]pyrimidin-4-yl]-amine] | 1680 | 46.9 |
| CCc1sc2ncnc(NCc3ccco3)c2c1-c1ccccc1 [Example 140, (6-Ethyl-5-phenyl-thieno[2,3-d]pyrimidin-4-yl)-furan-2-ylmethyl-amine] | 2710 | 74.2 |
| CCc1sc2ncnc(NCc3ccco3)c2c1-c1ccoc1 [Example 141, (6-Ethyl-5-furan-3-yl-thieno[2,3-d]pyrimidin-4-yl)-furan-2-ylmethyl-amine] | 2150 | 81.3 |
| Cc1ccccc1-c1csc2ncnc(NCc3ccccn3)c12 [Example 142, Pyridin-2-ylmethyl-(5-o-tolyl-thieno[2,3-d]pyrimidin-4-yl)-amine] | 1280 | 49.7 |
| Cc1ccccc1-c1csc2ncnc(NCc3ccco3)c12 [Example 143, Furan-2-ylmethyl-(5-o-tolyl-thieno[2,3-d]pyrimidin-4-yl)-amine] | 1320 | 63 |
| CC(C)(C)c1ccc(-c2csc3ncnc(NCc4ccccn4)c23)cc1 [Example 144, [5-(4-tert-Butyl-phenyl)-thieno[2,3-d]pyrimidin-4-yl]-pyridin-2-ylmethyl-amine] | 1320 | 81 |
| CC(C)(C)c1ccc(-c2csc3ncnc(NCc4ccco4)c23)cc1 [Example 145, [5-(4-tert-Butyl-phenyl)-thieno[2,3-d]pyrimidin-4-yl]-furan-2-ylmethyl-amine] | 3050 | 68 |
| c1ccc(CNc2ncnc3scc(C4CCCCC4)c23)nc1 [Example 146, (5-Cyclohexyl-thieno[2,3-d]pyrimidin-4-yl)-pyridin-2-ylmethyl-amine] | 1680 | 81 |
| c1coc(CNc2ncnc3scc(C4CCCCC4)c23)c1 [Example 147, (5-Cyclohexyl-thieno[2,3-d]pyrimidin-4-yl)-furan-2-ylmethyl-amine] | 2520 | 71 |
| CC(C)c1nc(NCc2ccccn2)c2c(-c3ccccc3)csc2n1 [Example 148, (2-Isopropyl-5-phenyl-thieno[2,3-d]pyrimidin-4-yl)-pyridin-2-ylmethyl-amine] | 1510 | 88 |
| Cc1nc(NCc2ccco2)c2c(-c3ccccc3)csc2n1 [Example 150, Furan-2-ylmethyl-(2-methyl-5-phenyl-thieno[2,3-d]pyrimidin-4-yl)-amine] | 140 | 96.8 |
| FC(F)(F)c1nc(NCc2ccccn2)c2c(-c3ccccc3)csc2n1 [Example 151, (5-Phenyl-2-trifluoromethyl-thieno[2,3-d]pyrimidin-4-yl)-pyridin-2-ylmethyl-amine] | 1680 | 95 |
| CCc1nc(NCc2ccccn2)c2c(-c3ccccc3)csc2n1 [Example 152, (2-Ethyl-5-phenyl-thieno[2,3-d]pyrimidin-4-yl)-pyridin-2-ylmethyl-amine] | 390 | 98.7 |
| CCc1nc(NCc2ccco2)c2c(-c3ccccc3)csc2n1 [Example 153, (2-Ethyl-5-phenyl-thieno[2,3-d]pyrimidin-4-yl)-furan-2-ylmethyl-amine] | 3630 | 96.8 |

Next, values leading:

| IC50 (human Kv1.5) [nM] | inhibition at 1 µM (hKv1.5) [%] | Compound |
| --- | --- | --- |
| 1620 | 92.2 | Cc1nc(NCc2ccccn2)c2c(-c3ccc(F)cc3)csc2n1 [Example 155, [5-(4-Fluorophenyl)-2-methyl-thieno[2,3-d]pyrimidin-4-yl]-pyridin-2-ylmethyl-amine] |
| 240 | 88 | Cc1sc2ncnc(NCc3ccccn3)c2c1-c1ccccc1 [Example 157, (6-Methyl-5-phenyl-thieno[2,3-d]pyrimidin-4-yl)-pyridin-2-ylmethyl-amine] |
| 17700 | 83.4 | c1ccc(-c2csc3ncnc(NC4CCCc5ccccc54)c23)cc1 (stereo not drawn) [Example 158, (5-Phenyl-thieno[2,3-d]pyrimidin-4-yl)-(1,2,3,4-tetrahydro-naphthalen-1-yl)-amine] |
| 13400 | 83 | Cc1sc2ncnc(N3CCCCC3)c2c1-c1ccccc1 [Example 159, 6-Methyl-5-phenyl-4-piperidin-1-yl-thieno[2,3-d]pyrimidine] |
| 25500 | 79.4 | c1ccc(-c2csc3ncnc(NCc4csc(-c5cccs5)n4)c23)cc1 [Example 161, (5-Phenyl-thieno[2,3-d]pyrimidin-4-yl)-(2-thiophen-2-yl-thiazol-4-ylmethyl)-amine] |
| 19700 | 74.5 | c1ccc(-c2nc(CNc3ncnc4scc(-c5ccccc5)c34)cs2)cc1 [Example 162, (2-Phenyl-thiazol-4-ylmethyl)-(5-phenyl-thieno[2,3-d]pyrimidin-4-yl)-amine] |
| 14300 | 70.8 | c1ccc(CCNc2ncnc3scc(-c4cccs4)c23)cc1 [Example 163, Phenethyl-(5-thiophen-2-yl-thieno[2,3-d]pyrimidin-4-yl)-amine] |
| 530 | 92.8 | Brc1sc2ncnc(NCc3ccccn3)c2c1-c1ccccc1 [Example 164, (6-Bromo-5-phenyl-thieno[2,3-d]pyrimidin-4-yl)-pyridin-2-ylmethyl-amine] |
| 1600 | 91 | Brc1sc2ncnc(NCc3ccco3)c2c1-c1ccccc1 [Example 165, (6-Bromo-5-phenyl-thieno[2,3-d]pyrimidin-4-yl)-furan-2-ylmethyl-amine] |
| 4130 | 96 | Clc1nc(NCc2ccccn2)c2c(-c3ccccc3)csc2n1 [Example 181, (2-Chloro-5-phenyl-thieno[2,3-d]pyrimidin-4-yl)-pyridin-2-ylmethyl-amine] |
| 1040 | 75.8 | Clc1nc(NCc2ccco2)c2c(-c3ccccc3)csc2n1 [Example 182, (2-Chloro-5-phenyl-thieno[2,3-d]pyrimidin-4-yl)-furan-2-ylmethyl-amine] |
| 2520 | 98 | c1ccc(-c2csc3nc(NCC4CC4)nc(NCc4ccccn4)c23)cc1 [Example 188, N^2-Cyclopropylmethyl-5-phenyl-N^4-pyridin-2-ylmethyl-thieno[2,3-d]pyrimidine-2,4-diamine] |
| 260 | 97.1 | OCCNc1nc(NCc2ccccn2)c2c(-c3ccccc3)csc2n1 [Example 190, 2-{5-Phenyl-4-[(pyridin-2-ylmethyl)-amino]-thieno[2,3-d]pyrimidin-2-ylamino}-ethanol] |
| 470 | 91.8 | COc1nc(NCc2ccccn2)c2c(-c3ccccc3)csc2n1 [Example 191, (2-Methoxy-5-phenyl-thieno[2,3-d]pyrimidin-4-yl)-pyridin-2-ylmethyl-amine] |
| 2500 | 89.2 | c1ccc(-c2csc3nc(NCc4ccco4)nc(NCc4ccco4)c23)cc1 [Example 193, N,N'-Bis(2-furylmethyl)-5-phenylthieno[2,3-d]pyrimidine-2,4-diamine] |
| 6390 | 90 | c1ccc(COc2nc(NCc3ccco3)c3c(-c4ccccc4)csc3n2)cc1 [Example 195, (2-Benzyloxy-5-phenyl-thieno[2,3-d]pyrimidin-4-yl)-furan-2-ylmethyl-amine] |
| 40 | 97 | CNc1nc(NCc2ccccn2)c2c(-c3ccccc3)csc2n1 [Example 196, N^2-methyl-5-phenyl-N^4-(pyridin-2-ylmethyl)thieno[2,3-d]pyrimidine-2,4-diamine] |
